The source of these data is PMC11337160, “Chirality and pH Influence the Self-Assembly of Antimicrobial Lipopeptides with Diverse Nanostructures” (ACS Applied Bio Materials, 2024).

≈ marks a conversion by molar mass, not a printed value. Non-standard residues stand in square brackets, D forms with d. Residues, ends and D or L forms follow the SMILES beside them. *: point of attachment. Palmitoyl = CCCCCCCCCCCCCCCC(=O)*

Data set [1] has as its system Salmonella enterica NCTC 5188. Put plainly: Minimum bactericidal concentration (MBC). Conditions: 5 × 10^6 CFU/mL in MHB, lipopeptide 0-1000 μg/mL, 18 h at 37 °C, 10 μL spot-inoculated onto LB agar, overnight 37 °C. The class given is cell-based. The protocol:
(§1) Two Gram-negative strains (Escherichia coli K12 and Salmonella enterica NCTC 5188) and one Gram-positive strain (Staphylococcus aureus ATCC 12600) were employed to evaluate the potential bactericidal activity of tested lipopeptides. A single colony from each strain, pre-streaked onto an LB (lysogeny broth) agar plate, was inoculated into 5 mL of LB broth and incubated at 37 °C with shaking (250 rpm) for 18 h. Then, the bacterial culture was adjusted to 5 × 10^6 CFU mL^–1 mid-log phase in Mueller-Hinton broth (MHB), and aliquots were transferred to individual wells of a U-bottom 96-well microplate with increasing concentrations of lipopeptides (0–1000 μg mL^–1). Included positive and negative controls consisted of 0.97 μg mL^–1 ciprofloxacin or 1× PBS in MHB, respectively. After 18 h of incubation at 37 °C, 10 μL from each well was spot-inoculated onto LB agar and plates were further incubated at 37 °C overnight to assess the MBC which refers to the lowest concentration of an antibacterial agent required to kill bacteria (here denoted by colony growth on the plate).
(§2) Figure 9 Determination of MBC of lipopeptides P1, P1D, P2, and P2D. 10 μL aliquots from broth microdilution plates were spot-inoculated onto LB agar plates. The MBC refers to the lowest concentration of an antibacterial agent required to completely kill bacteria shown by the lack of colony formation. […] Positive control (+) 0.97 μg mL^–1 ciprofloxacin; negative control (−) 1X PBS.

A further data set has as its system Escherichia coli K12. The data set is classed as cell-based. Conditions: K12, 18 h. On the procedure: as §1, §2
For data set [2], the system named is Staphylococcus aureus ATCC 12600. The data set is classed as cell-based. To be noted: ATCC 12600, 18 h. The protocol:
as §1, §2

Data set [3] can be described thus: Critical aggregation concentration (CAC) by Thioflavin T fluorescence. The data set is classed as physicochemical. To be noted: ThT fluorescence probe (5 × 10^–4 wt % ThT), aqueous solution pH 8, 25 °C, λex 440 nm, emission 487 nm, breakpoint of I/I0 versus concentration. The protocol:
For the fluorescence experiments, a Varian Cary Eclipse spectrofluorometer was used, and the samples were placed in 4 mm inner-width quartz cuvettes. For experimental settings, excitation and emission bandwidths of 2.5 nm were used. All the experiments were carried out at 25 °C. The CAC value for all the samples was determined by fluorescence experiments with Thioflavin T (ThT). ThT is well known to bind to amyloid fibrils, and can be used to determine CAC values.[44]−[46] First a stock solution (5 × 10^–4 wt %) ThT solution was prepared and using this solution, various concentrations of samples were prepared. The scan of the fluorescence spectra (λex = 440 nm) was taken from 460 to 670 nm.
The CAC value of the samples was calculated by plotting I/I0 versus concentration (in wt %). Here I0 is the maximum intensity for the control, i.e., ThT solution without the sample, and I signifies the maximum fluorescence intensity of ThT at a given concentration of lipopeptide.
To determine the CAC values of these lipopeptides, fluorescence probe assays using Thioflavin T (ThT) were performed, this dye being sensitive to the formation of β-sheet structures.[44]−[46] Emission spectra of the four lipopeptides were collected at different concentrations after excitation at 440 nm. At higher concentrations, an emission peak at 487 nm is visible. […] The lower CAC values for P2 and P2D are due to the higher hydrophobicity of tryptophan compared to tyrosine. […] However, since aggregation at the two different pH values gives rise to distinct nanostructures, this may be coincidental.

Data set [4] is described as follows: Cryo-TEM imaging of self-assembled nanostructures. The class given is physicochemical. Conditions: 1 wt % aqueous solution, pH 8. The protocol:
The Cryo-TEM imaging was performed using a field emission cryo-electron microscope (JEOL JEM-3200FSC), operating at 200 kV. To take the TEM images bright field mode with a zero-loss energy filter (omega type) was used, with a slit width of 20 eV. A Gatan UltraScan 4000 CCD camera was used to record the micrographs. During the entire experiment, the sample was kept at −187 °C. An automated FEI Vitrobot device was used to blot and vitrify samples on Quantifoil 3.5:1 holey carbon copper grids with a hole size of 3.5 μm. Before taking the images, grids were first plasma cleaned using a Gatan Solarus 9500 plasma cleaner, followed by transferring to the environmental chamber of a FEI Vitrobot at room temperature and 100% humidity. For sample spotting on the grid, 3 μL of sample solution was taken and spread on the grid. It was blotted twice and then vitrified in a 1:1 mixture of liquid ethane and propane at a temperature of −180 °C. The grids with vitrified sample solution were maintained at liquid nitrogen temperature and then cryo-transferred to the microscope.
The self-assembled nanostructure of these lipopeptides at acidic pH was investigated at the lower pH of 4.6 in our recent paper,[43] and here we report the unexpected observation of distinct self-assembled nanostructure of these lipopeptides at a higher pH. For cryo-TEM imaging at basic pH, 1 wt % aqueous solution of lipopeptides at pH 8 were prepared, this concentration being above the measured CAC values for these lipopeptides. […] In contrast, the TEM images of all the lipopeptides at pH 4.6 show small spherical micelles with a mean diameter of 4–9 nm (as reported previously,[43] with additional images in Figure S5).

The test system of data set [5] is E. coli. Conditions: MIC values were reported previously; cited from earlier work. An excerpt:
Table 1 Antimicrobial, Cytotoxic, and Selectivity Index Activities of Lipopeptides ^a | column: MIC (μg/mL) / E. coli

Another data set has as its system S. enterica. To be noted: MIC values were reported previously; cited from earlier work. An excerpt: Table 1 Antimicrobial, Cytotoxic, and Selectivity Index Activities of Lipopeptides ^a | column: MIC (μg/mL) / S. enterica
In a further data set the test system is S. aureus. To be noted: MIC values were reported previously; cited from earlier work. From the text: Table 1 Antimicrobial, Cytotoxic, and Selectivity Index Activities of Lipopeptides ^a | column: MIC (μg/mL) / S. aureus
In data set [6] the test system is E. coli. Nature of the data set: Live/Dead staining, membrane integrity (epifluorescence). The data set is classed as cell-based. To be noted: two-fold MIC of lipopeptide, 1 h at 37 °C, compared to P1 and P1D. An excerpt:
A bacteria Live/Dead staining kit (PromoKine) was employed to gain insight into the possible membrane disruption activity of tested lipopeptides. In summary, we used two color fluorescence dyes with varying ability to cross the cytoplasmatic membranes of bacteria. DMAO is a green-fluorescent nucleic acid dye which stains the cell membranes of both live and dead bacteria, while the red fluorescing EthD-III dye selectively stains dead bacteria with compromised membranes. With appropriately calculated volumes of dyes, live viable bacterial cells fluoresce green whilst dead compromised cells fluoresce red. For this assessment, a total of 5 × 10^6 mL^–1 exponential phase bacterial cells were incubated with two-fold MIC of lipopeptides for 1 h at 37 °C. Negative and positive controls consisted respectively of the addition of PBS and Triton-X100 (1%) to replace lipopeptides. Afterwards, the sample was centrifuged at 1000g for 10 min. The pellet was resuspended in 100 μL of 0.85% buffered NaCl with the epifluorescence dyes, following the kit instructions, and incubated for 15 min at room temperature. The samples were examined under a Nikon Eclipse Ti2 inverted microscope.
Figure 10 Membrane permeabilization of E. coli (A) and S. aureus (B) was observed through epifluorescence microscopy. […]

For `CCCCCCCCCCCCCCCC(=O)N[C@@H](Cc1ccc(O)cc1)C(=O)N[C@@H](CCCCN)C(=O)N[C@@H](CCCCN)C(N)=O` [P1] (Palmitoyl-Tyr-Lys-Lys-NH2), the “MBC S. enterica” value in [1] was 125 µg/mL (≈ 185 µM). In addition, the “MBC E. coli” value in the data set with Escherichia coli K12 came to 62.5 µg/mL (≈ 92.6 µM). The “MBC S. aureus” value in data set [2] was 62.5 µg/mL (≈ 92.6 µM). Further, in data set [3], the “CAC (critical aggregation concentration)” value is recorded as 0.040 ± 0.003 wt %. Also, in data set [4], the “mean diameter of nanostructure (cryo-TEM)” value (“mean diameter” below) was 11.7 ± 3.3 nm and the “self-assembled nanostructure (cryo-TEM)” value is reported as “long intertwined nanofibers”. For the same molecule, in the data set with E. coli [5], the “MIC E. coli” value is 15.63 to 31.25 µg/mL. Further, the “MIC S. enterica” value in the data set on S. enterica was 31.25 to 62.5 µg/mL. Also, the “MIC S. aureus” value in the data set on S. aureus is 31.25 to 62.5 µg/mL.
For `CCCCCCCCCCCCCCCC(=O)N[C@@H](Cc1ccc(O)cc1)C(=O)N[C@H](CCCCN)C(=O)N[C@H](CCCCN)C(N)=O` [P1D] (Palmitoyl-Tyr-[dK]-[dK]-NH2), the “MBC S. enterica” value in [1] worked out at 125 µg/mL (≈ 185 µM). Moreover, the “MBC E. coli” value with Escherichia coli K12 is 62.5 µg/mL (≈ 92.6 µM). The “MBC S. aureus” value in [2] was determined as 250 µg/mL (≈ 370 µM). In addition, the “CAC (critical aggregation concentration)” value in [3] is 0.034 ± 0.005 wt %. Besides, in data set [4], the “self-assembled nanostructure (cryo-TEM)” value is given as “twisted nanotape structures of variable width”. Further, the “MIC E. coli” value in the data set with E. coli [5] is 15.63 to 31.25 µg/mL. Besides, the “MIC S. enterica” value in the data set with S. enterica is 31.25 µg/mL (≈ 46.3 µM). Besides, in the data set with S. aureus, the “MIC S. aureus” value is 31.25 µg/mL (≈ 46.3 µM).
For the molecule `CCCCCCCCCCCCCCCC(=O)N[C@@H](Cc1c[nH]c2ccccc12)C(=O)N[C@H](CCCCN)C(=O)N[C@H](CCCCN)C(N)=O` [P2D] (Palmitoyl-Trp-[dK]-[dK]-NH2), the “MBC S. enterica” value in [1] was determined as 125 µg/mL (≈ 179 µM). Besides, the “MBC E. coli” value with Escherichia coli K12 turned out to be 62.5 µg/mL (≈ 89.5 µM). Further, the “MBC S. aureus” value in [2] was 62.5 µg/mL (≈ 89.5 µM). In data set [3], the “CAC (critical aggregation concentration)” value is on record as 0.026 ± 0.004 wt %. For the same molecule, in data set [4], the “mean diameter” value is 32.8 ± 4.5 nm and the “self-assembled nanostructure (cryo-TEM)” value is given as “nanotube structures”. In the data set on E. coli [6], the “formation of bacterial cell aggregates, E. coli” value is “cell aggregates (clusters) was observed”. The “MIC E. coli” value in the data set with E. coli [5] was 31.25 to 62.5 µg/mL. Besides, in the data set on S. enterica, the “MIC S. enterica” value is 62.5 µg/mL (≈ 89.5 µM). The “MIC S. aureus” value in the data set with S. aureus was 31.25 to 62.5 µg/mL.
As for `CCCCCCCCCCCCCCCC(=O)N[C@@H](Cc1c[nH]c2ccccc12)C(=O)N[C@@H](CCCCN)C(=O)N[C@@H](CCCCN)C(N)=O` [P2] (Palmitoyl-Trp-Lys-Lys-NH2), the “MBC S. enterica” value in [1] was determined as 250 µg/mL (≈ 358 µM). Besides, the “MBC E. coli” value against Escherichia coli K12 stood at 250 µg/mL (≈ 358 µM). Moreover, in data set [2], the “MBC S. aureus” value came out at 250 µg/mL (≈ 358 µM). Moreover, in [3], the “CAC (critical aggregation concentration)” value is on record as 0.026 ± 0.004 wt %. Besides, in data set [4], the “mean diameter” value is 6.4 ± 2 nm and the “self-assembled nanostructure (cryo-TEM)” value was “long intertwined nanofibers”. Also, in the data set with E. coli [6], the “formation of bacterial cell aggregates, E. coli” value was “cell aggregates (clusters) was observed”. Also, in the data set with E. coli [5], the “MIC E. coli” value was 15.63 to 62.5 µg/mL. Also, in the data set with S. enterica, the “MIC S. enterica” value was 62.5 to 250 µg/mL. Further, the “MIC S. aureus” value with S. aureus was 31.25 to 62.5 µg/mL.
